# According to paper PMC10748408 (Frontiers in Oncology, 2023):
# Tests used:
# [1] = test system: cells isolated from the liver, kidney and lungs; assay: MTT viability of cells isolated from organs of treated mice; assay type: in vivo, BALB/c mice; conditions: MTT assay
# Procedure: Tissue samples were immersed in 9 parts of serum-free DMEM and 1 part of enzyme cocktail. Digestion was performed at 37°C for 4 hours. Isolated cells were washed well to remove any remaining enzyme, resuspended in ice-cold PBS and filtered through a single cell mesh to dissociate cell clumps. Cell viability was checked using trypan blue dye exclusion test before using the cells for further assays ([21]). 1 x 10^5 viable cells were seeded in a 96-well plate. […] Following treatment, wells were washed to remove the media and 100 µl of PBS was added to each well. Finally, 10 µl of MTT solution (5 mg/mL in PBS) was added and incubated at 37°C for 3 hours. The purple crystals formed were dissolved in 150 µl of DMSO. Absorbance was measured at 570 nm in a multi-plate reader Varioskan™ Lux (Thermo Fisher Scientific, USA; [21]).
# [2] = test system: TNF-α, IL-1β, IL-6 and IL-12; assay: Serum pro-inflammatory cytokine ELISA; assay type: in vivo, BALB/c mice; conditions: ART-treated vs untreated tumor-bearing mice
# Procedure: Serum isolated from experimental mice, and conditioned media collected from MDA-MB-231 and 4T1 cells, were used to estimate levels of cytokines by ELISA. To prepare the conditioned media, the cell culture medium containing serum was discarded and cells were washed with serum-free DMEM media. […] After incubation, the conditioned media was collected for cytokine analysis. As per the manufacturer’s protocol, samples were added to the multi-analyte ELISArray wells, coated with antibodies for TNF-α, IL-1β, IL-6 and IL-12 and incubated for 2 hours. Detection antibodies were added, followed by 30 minutes incubation with avidin-HRP. After incubating with the developing solution, stop solution (Qiagen) was added to terminate the reaction ([39]). The O.D. was measured at 450 and 570 nm in an ELISA plate reader (Varioskan Lux, Thermo Fisher; USA).
# [3] = test system: ALDH+ cells (CSCs) of mammary tumors; assay: ALDH+ population estimation (Aldefluor) in tumors; assay type: in vivo, BALB/c mice; conditions: untreated tumor 24.1%
# Procedure: Mammary fat pad and tumor tissues (1 × 10^6 cells/ml) were resuspended in aldefluor™ assay buffer containing ALDH substrate and incubated for 45 minutes at 37°C. As a control, cells were resuspended in buffer containing aldefluor substrate in the presence of diethylaminobenzaldehyde (DEAB), a specific ALDH inhibitor. The fluorescent ALDH^+ cells were detected in the green fluorescence channel (520-540nm) in a flow cytometer (BD FACS Aria III). ALDH^+ and ALDH^- cells were eventually sorted using the BD Aria III Cell Sorter and sorted cells collected for further analysis (BD Biosciences, USA; [21]).
# MDA-MB-231 cells = assay: Cell viability assay (MTT); assay type: cell-based; conditions: Homo sapiens, 24 hours
# Procedure: Human triple negative breast cancer cells MDA-MB-231 and murine mammary cancer cells 4T1 were obtained from National Centre for Cell Sciences, Pune, India. Cells were maintained in complete Dulbecco’s Modified Eagle Medium (DMEM) supplemented with 10% FBS and 1% penicillin/streptomycin, and incubated at 37°C in 5% CO2 - 95% humidified atmosphere. Cells in log phase of growth was used for all subsequent experiments ([21]). 1 x 10^5 viable cells were seeded in a 96-well plate. […] Following treatment, wells were washed to remove the media and 100 µl of PBS was added to each well. Finally, 10 µl of MTT solution (5 mg/mL in PBS) was added and incubated at 37°C for 3 hours. The purple crystals formed were dissolved in 150 µl of DMSO. Absorbance was measured at 570 nm in a multi-plate reader Varioskan™ Lux (Thermo Fisher Scientific, USA; [21]).
# CLEC12A = assay: Western blot of CLEC12A in tumor tissues; assay type: in vivo, BALB/c mice; conditions: ART treatment, dose-dependent
# Procedure: Normal and tumor tissues were homogenized in ice-cold radioimmunoprecipitation assay (RIPA) buffer containing a protease inhibitor cocktail. Proteins were resolved by 10% sodium dodecyl sulphate-polyacrylamide gel electrophoresis (SDS-PAGE), transferred onto polyvinylidene difluoride (PVDF) membranes, blocked with 5% fat-free milk and incubated with primary antibodies (1:1000 dilution) overnight at 4°C. Blots were subsequently washed and incubated with respective secondary antibodies, tagged with horseradish peroxidase. Protein expression was detected using enhanced chemiluminescence (ECL) kit ([37]). Blots were analyzed using the Gel Doc XR and band intensity quantified using ImageJ software (NIH, USA).
# 4T1 cells = assay: Apoptotic cells (Annexin-FITC/PI flow cytometry) with or without CLEC12A overexpression; assay type: cell-based, murine; conditions: 4T1, non-transfected, ART + (1 µM, 24 hours); without ART 0.2%
# Procedure: Cells, isolated from normal and treated/untreated tumor tissues by collagenase-hyaluronidase digestion, were washed with Ca^2+-free PBS and stained with Annexin V binding buffer (1X). The cells were then incubated with Annexin V-FITC and propidium iodide (PI) for 15 minutes at 37°C. Cells were eventually analyzed on the BD FACS Aria III (Alexa Fluor at 488nm and PE at 570 nm, respectively). The percentage of apoptotic and necrotic cells were analyzed using the […]™ software (BD Biosciences, USA; [37]). For transfection, MDA-MB-231 and 4T1 cells were grown in a 6-well plate until they reached 70% confluency. CLEC12A-pcDNA recombinant/empty DNA plasmid (2500ng) or pcDNA empty vector (2500ng) was transfected into cells using 5μl Lipofectamine® 2000 reagent. […] Finally, transfection efficiency was confirmed by western blot analysis ([42]).
structure (smiles),measurement,setting,value
"C[C@@H]1CC[C@H]2[C@@H](C)C(=O)O[C@@H]3O[C@@]4(C)CC[C@@H]1[C@]32OO4 [ART, Artemisinin]","viability of cells isolated from the liver, kidney and lungs",[1]; normal mice treated with ART,no loss of viability
same,"viability of cells isolated from the liver, kidney and lungs","[1]; tumor-bearing mice, increasing doses of ART",significantly increased cell viability
same,"levels of pro-inflammatory cytokines (TNF-α, IL-1β, IL-6 and IL-12)",[2],dose-dependent reduction
same,percentage of ALDH+ cells,[3]; T+ 25: ART 25 mg/kg,8.1%
same,percentage of ALDH+ cells,[3]; T+ 50: ART 50 mg/kg,6.2%
same,IC50,MDA-MB-231 cells,5 µM
same,expression of CLEC12A,CLEC12A,reduced
same,percentage of apoptotic cells,4T1 cells,11%
